# Experimental data published in ChEMBL document CHEMBL6134849, “A Water-Soluble Aggregation-Induced Emission Photosensitizer with Intrinsic Antibacterial Activity as an Antiplanktonic and Antibiofilm Therapeutic Agent” (J Med Chem, 2025).
# The source made the active and inactive calls. No cut-off for these calls is given here.
# Columns and labels:
# Staphylococcus aureus [1] = assay: Downregulation of ftsZ expression level in Staphylococcus aureus at 6.25 uM incubated for 1 hr in absence of light irradiation; format: functional
# Staphylococcus aureus [2] = assay: Downregulation of ddl expression level in Staphylococcus aureus at 6.25 uM incubated for 1 hr in absence of light irradiation; format: functional
# [3] = Induction of […] ROS generation in PBS assessed as increase in hydroxyl radical by measuring increase in HPF fluorescence intensity at 10 uM irradiated with 660 nm 60 mW/cm2 light for 15 mins by HPF probe based plate reader analysis; format: functional
# Staphylococcus aureus [4] = assay: Downregulation of div1B expression level in Staphylococcus aureus at 6.25 uM incubated for 1 hr in absence of light irradiation; format: functional
# Staphylococcus aureus [5] = assay: Downregulation of thrS expression level in Staphylococcus aureus at 6.25 uM incubated for 1 hr in absence of light irradiation; format: functional
# Staphylococcus aureus [6] = assay: Downregulation of sepF expression level in Staphylococcus aureus at 6.25 uM incubated for 1 hr in absence of light irradiation; format: functional
# Staphylococcus aureus [7] = assay: Downregulation of sle1 expression level in Staphylococcus aureus at 6.25 uM incubated for 1 hr in absence of light irradiation; format: functional
# Cell membrane [8] = assay: Induction of cell membrane damage in Staphylococcus aureus assessed as protein leakage at 10 uM preincubated with compound for 20 mins followed by 600 nm light irradiation for 45 min by absorption based plate reader analysis; format: subcellular; conditions: time 65.0 min
# [9] = Induction of type-II ROS generation in PBS assessed as increase in nonspecific ROS by measuring increase in DHR123 fluorescence intensity at 10 uM irradiated with 660 nm 60 mW/cm2 light for 15 mins by DHR123 probe based plate reader analysis; format: functional
# Pseudomonas aeruginosa = assay: Selective drug uptake in Pseudomonas aeruginosa co-cultured with human HFF-1 cells by measuring fluorescence signal at 10 uM incubated for 20 mins; format: ADME, organism-based; conditions: hff-1, 20 min
# Staphylococcus aureus [10] = assay: Downregulation of ssl7 protein expression in Staphylococcus aureus under light irradiation; format: functional
# Staphylococcus aureus [11] = assay: Antibiofilm activity against Staphylococcus aureus assessed as mature biofilm eradication incubated for 24 hrs under dark condition in absence of light irradiation by crystal violet staining based analysis; format: functional, organism-based
# Staphylococcus aureus [12] = assay: Downregulation of ileS expression level in Staphylococcus aureus at 6.25 uM incubated for 1 hr in absence of light irradiation; format: functional
# Staphylococcus aureus [13] = assay: Downregulation of lytH expression level in Staphylococcus aureus at 6.25 uM incubated for 1 hr in absence of light irradiation; format: functional
# Cell membrane [14] = assay: Induction of cell membrane damage in Staphylococcus aureus assessed as bacterial cell collapse at 10 uM preincubated with compound for 20 mins followed by 600 nm light irradiation for 45 min by SEM analysis; format: subcellular; conditions: time 65.0 min
# Staphylococcus aureus [15] = assay: Downregulation of alr1 expression level in Staphylococcus aureus at 6.25 uM incubated for 1 hr in absence of light irradiation; format: functional
# Cell membrane [16] = assay: Induction of cell membrane damage in Pseudomonas aeruginosa assessed as bacterial cell collapse at 10 uM preincubated with compound for 20 mins followed by 600 nm light irradiation for 45 min by SEM analysis; format: subcellular; conditions: time 65.0 min
# Staphylococcus aureus [17] = assay: Downregulation of femB expression level in Staphylococcus aureus at 6.25 uM incubated for 1 hr in absence of light irradiation; format: functional
# Staphylococcus aureus [18] = assay: Downregulation of murF expression level in Staphylococcus aureus at 6.25 uM incubated for 1 hr in absence of light irradiation; format: functional
# Staphylococcus aureus [19] = assay: Antibacterial activity against Staphylococcus aureus at 6.25 uM measured within 2 hrs in absence of light irradiation by time-kill kinetics assay relative to control; format: functional
# Staphylococcus aureus [20] = assay: Downregulation of asnS expression level in Staphylococcus aureus at 6.25 uM incubated for 1 hr in absence of light irradiation; format: functional
# [21] = Induction of type-I ROS generation in PBS assessed as increase in hydroxyl radical by measuring increase in HPF fluorescence intensity at 10 uM irradiated with 660 nm 60 mW/cm2 light for 15 mins by HPF probe based plate reader analysis; format: functional
# Staphylococcus aureus [22] = assay: Downregulation of murC expression level in Staphylococcus aureus at 6.25 uM incubated for 1 hr in absence of light irradiation; format: functional
# Staphylococcus aureus [23] = assay: Downregulation of glmM expression level in Staphylococcus aureus at 6.25 uM incubated for 1 hr in absence of light irradiation; format: functional
# Cell membrane [24] = assay: Induction of cell membrane damage in Pseudomonas aeruginosa assessed as bacterial cell shrinkage at 10 uM preincubated with compound for 20 mins followed by 600 nm light irradiation for 45 min by SEM analysis; format: subcellular; conditions: time 65.0 min
# Staphylococcus aureus [25] = assay: Downregulation of hisS expression level in Staphylococcus aureus at 6.25 uM incubated for 1 hr in absence of light irradiation; format: functional
# Staphylococcus aureus [26] = assay: Downregulation of glyQS expression level in Staphylococcus aureus at 6.25 uM incubated for 1 hr in absence of light irradiation; format: functional
# Cell membrane [27] = assay: Induction of cell membrane damage in Staphylococcus aureus at 12.5 to 25 uM incubated for 3 hrs under dark condition by scanning electron microscopic analysis; format: subcellular; conditions: dose 12.5-25 µM
# Staphylococcus aureus [28] = assay: In vivo antibacterial activity against methicillin-resistant Staphylococcus aureus ATCC 43300 infected in female BALB/c mouse skin wound infection model assessed as collagen deposition in wound at 90 uM pre-infected with bacteria for 24 hrs followed by topical compound addition for 10 mins in presence of 600 nm 60 mW/cm2 light irradiation for 15 mins and measured on day 6 by H and E staining based analysis; format: functional, organism-based; conditions: time 6.0 day
# Staphylococcus aureus [29] = assay: Downregulation of gltX expression level in Staphylococcus aureus at 6.25 uM incubated for 1 hr in absence of light irradiation; format: functional
# Cell membrane [30] = assay: Induction of cell membrane damage in Staphylococcus aureus assessed as RNA leakage at 10 uM preincubated with compound for 20 mins followed by 600 nm light irradiation for 45 min by absorption based plate reader analysis; format: subcellular; conditions: time 65.0 min
# Staphylococcus aureus [31] = assay: Downregulation of hlgC protein expression in Staphylococcus aureus under light irradiation; format: functional
# Staphylococcus aureus [32] = assay: Downregulation of murD expression level in Staphylococcus aureus at 6.25 uM incubated for 1 hr in absence of light irradiation; format: functional
# Staphylococcus aureus [33] = assay: Downregulation of hlgB protein expression in Staphylococcus aureus under light irradiation; format: functional
# Cell membrane [34] = assay: Induction of cell membrane damage in Pseudomonas aeruginosa assessed as RNA leakage at 10 uM preincubated with compound for 20 mins followed by 600 nm light irradiation for 45 min by absorption based plate reader analysis; format: subcellular; conditions: time 65.0 min
# Staphylococcus aureus [35] = assay: Downregulation of serS expression level in Staphylococcus aureus at 6.25 uM incubated for 1 hr in absence of light irradiation; format: functional
# Cell membrane [36] = assay: Induction of cell membrane damage in Staphylococcus aureus assessed as DNA leakage at 10 uM preincubated with compound for 20 mins followed by 600 nm light irradiation for 45 min by absorption based plate reader analysis; format: subcellular; conditions: time 65.0 min
# Staphylococcus aureus [37] = assay: Downregulation of tyrS expression level in Staphylococcus aureus at 6.25 uM incubated for 1 hr in absence of light irradiation; format: functional
# Cell membrane [38] = assay: Induction of cell membrane damage in Staphylococcus aureus assessed as bacterial cell shrinkage at 10 uM preincubated with compound for 20 mins followed by 600 nm light irradiation for 45 min by SEM analysis; format: subcellular; conditions: time 65.0 min
structure (smiles),measurement,setting,value
C#CCC[n+]1c(/C=C/c2ccc(-c3ccc(N(c4ccc(OCCC[N+](C)(C)C)cc4)c4ccc(OCCC[N+](C)(C)C)cc4)cc3)s2)sc2ccccc21.[Br-].[Br-].[Br-],Activity,Staphylococcus aureus [1],Active
same,Activity,Staphylococcus aureus [2],Active
same,Activity,[3],Active
same,Activity,Staphylococcus aureus [4],Active
same,Activity,Staphylococcus aureus [5],Active
same,Activity,Staphylococcus aureus [6],Active
same,Activity,Staphylococcus aureus [7],Active
same,Activity,Cell membrane [8],Active
same,Activity,[9],Active
same,Drug uptake,Pseudomonas aeruginosa,Active
same,Activity,Staphylococcus aureus [10],Active
same,Activity,Staphylococcus aureus [11],Active
same,Activity,Staphylococcus aureus [12],Active
same,Activity,Staphylococcus aureus [13],Active
same,Activity,Cell membrane [14],Active
same,Activity,Staphylococcus aureus [15],Active
same,Activity,Cell membrane [16],Active
same,Activity,Staphylococcus aureus [17],Active
same,Activity,Staphylococcus aureus [18],Active
same,Activity,Staphylococcus aureus [19],100%
same,Activity,Staphylococcus aureus [20],Active
same,Activity,[21],Active
same,Activity,Staphylococcus aureus [22],Active
same,Activity,Staphylococcus aureus [23],Active
same,Activity,Cell membrane [24],Active
same,Activity,Staphylococcus aureus [25],Active
same,Activity,Staphylococcus aureus [26],Active
same,Activity,Cell membrane [27],Active
same,Activity,Staphylococcus aureus [28],Active
same,Activity,Staphylococcus aureus [29],Active
same,Activity,Cell membrane [30],Active
same,Activity,Staphylococcus aureus [31],Active
same,Activity,Staphylococcus aureus [32],Active
same,Activity,Staphylococcus aureus [33],Active
same,Activity,Cell membrane [34],Active
same,Activity,Staphylococcus aureus [35],Active
same,Activity,Cell membrane [36],Active
same,Activity,Staphylococcus aureus [37],Active
same,Activity,Cell membrane [38],Active
